Non-standard residues stand in square brackets, D forms with d. Residues, ends and D or L forms follow the SMILES beside them. *: point of attachment. Phenylacetyl(2,3,4,5,6-F5) = O=C(Cc1c(F)c(F)c(F)c(F)c1F)*; Phe(F5) = N[C@@H](Cc1c(F)c(F)c(F)c(F)c1F)C(=O)O; Phe(4-Cl) = N[C@@H](Cc1ccc(Cl)cc1)C(=O)O; hArg = N=C(N)NCCCC[C@H](N)C(=O)O; 12Ado = NCCCCCCCCCCCC(=O)O; Nle = CCCC[C@H](N)C(=O)O; Abu = CC[C@H](N)C(=O)O
Assays:
[1] = test system: pancreatic cancer PANC-1 xenograft; assay: Xenograft tumor growth in nude mice, PANC-1; type: in vivo; conditions: Table 4A, Pancreatic Ca PANC-1, 7 weeks; for % Inhibition: vs control
Description: (§1) The peptides' activity was compared with GHRH antagonist MIA-602. All statistical analyzses were performed from comparing GHRA antagonists to non-treated tumor (control).
(§2) Peptides and chemicals. GHRH antagonists MIA-602 and AVR-GHRH antagonists (see Table 2 above) were synthesized by solid phase methods and purified by HPLC. The peptides were dissolved in DMSO and further diluted in 10% 1,2-propanediol. The final concentration of peptides was 50 µg/ml in 10% 1,2-propanediol containing 0.1% of DMSO.
(§3) Cell culture. Human cancer cell lines including pancreatic (PANC-1 and CFPAC-1), lung (HCC827 and H460), stomach (NCI-N87), prostate (PC3), brest (MX-1 and HCC-1806), colorectal (HT-29), and ovarian (SK-OV-3 and OVCAR-3) were obtained from the American Type Culture Collection (ATCC) and cultured at 37° C. in a humidified 95% air/5% CO2 atmosphere in the medium recommended by ATCC.
(§4) Xenograft models of human cancers in nude mice. Female athymic (NCr nu/nu) nude mice, 5- to 6-weeks-old, obtained from the Envigo labs (Tampa, Fla.), were housed in laminar airflow cabinets under pathogen-free conditions with a 12-h light/12-h dark schedule, and were fed autoclaved standard chow and water. To generate mice with xenografted tumors, tumor xenografts were initiated by subcutaneous (s.c.) injection of 107 human cancer cells into female nude mice. After about 4 weeks the resulting tumors were dissected and collected after removing necrosis tissues. The tumors were then cut into particles with size of 3 mm3 and transplanted s.c. by trocar needle into experimental animals. When tumors grew to the size of 50-60 mm3 (by volume), mice were randomized into groups and treated daily for 4-8 weeks by subcutaneous administration of 5 μg of GHRH antagonists MIA-602 or AVR-compounds (2-10 μg as indicated), or vehicle solutions (0.1% DMSO in 10% 1,2-propanediol) respectively. Tumor sizes were measured weekly.
(§5) Statistical analysis. One-way ANOVA followed by Bonferroni comparison were performed. Data are expressed as Mean±SEM. To determine statistical significance between animal groups, two-tailed Student's t-test was conducted. Differences were considered significant when p<0.05.
(§6) Results. […] FIG. 1A-N represents in vivo inhibition of tumor growth during the treatment with GHRH antagonist MIA-602 and selected AVR antagonists in nude mice xenografted with various human tumors including pancreatic cancer PANC-1 (FIG. 1A) and CFPAC-1 (FIG. 1I); lung cancer HCC827 (FIGS. 1B, C) and H460 (FIG. 1H); stomach cancer N87 (FIGS. 1D-F); colon cancer HT-29 (FIG. 1G); breast cancer MX-1 and HCC-1806 (FIGS. 1J, K); ovarian cancer SK-OV-3 and OVACAR-3 (FIGS. 1 L, M) and prostate cancer PC3 (FIG. 1N). See also Table 5.

[2] = test system: breast cancer MX-1 xenograft; assay: Xenograft tumor growth in nude mice, MX-1; type: in vivo; conditions: Table 4J, Breast Ca MX-1, 4 weeks, 5 μg/day s.c.; for % Inhibition: vs control
Description: as §1, §2, §3, §4, §5, §6

[3] = test system: SK-OV-3 ovarian cancer cells; assay: In vitro cell viability, SK-OV-3; type: cell-based, human; conditions: Table 3B; * at 2 μM for 72 H; MIA-602 = 1
Description: (§7) The inhibitory effects of the various synthesized GHRH antagonists were tested in cell proliferation assays in various human cancer cell lines including stomach cancer (KATOIII, N87), colon cancer (HT-29), urothelial cancer (J82, RT4), pancreatic cancer (PANC-1, CFPAC-1), prostatic cancer (PC3), breast cancer (MX-1, HCC1806), ovarian cancer (SK-OV-3, OVCAR-3) and lung cancer (HCC827, H460).
as §3, with “(NCI-N87 and KATOIII), urothelial (J82, RT4), prostatic” for “(NCI-N87), prostate”, “breast” for “brest”, “HCC 1806),” for “HCC-1806),”
(§8) In vitro cell viability. Cell viability was analyzed as follows: cancer cells including pancreatic (PANC-1 and CFPAC-1), lung (HCC827 and H460), stomach (NCI-N87 and KATOIII), urothelial (J82, RT4), prostatic (PC3) and breast (MX-1 and HCC 1806), colorectal (HT-29) and ovarian (SK-OV-3 and OVCAR-3) were grown on 96 well plates to ˜60% confluence, the cells were starved for 24 h in culture medium containing 0.5% FBS. Cells were then treated with GHRH antagonists MIA602 AVR compounds at concentrations of 1, 2.5 or 5 μM, or vehicle (0.1% DMSO) in quintuplicates for 72 hours. The medium was replaced every 48 hours. Cell viability was measured using CellTiter 96 aqueous one solution kit (Promega). Inhibitory effects of tested AVR compounds in comparison to that of MIA602 are presented as inhibitory potency.
Inhibitory effects of selected AVR compounds in comparison to that of MIA602 are presented as inhibitory potency (e.g., percentage of inhibition). […] The cell lines tested including lung cancer HCC827 (FIG. 2A), pancreatic cancer CFPAC-1 (FIG. 2B), stomach cancer N87 (FIG. 2C), colon cancer HT-29 (FIG. 2D), breast cancers MX-1 and HCC1806 (FIGS. 2 E, F). […]

[4] = test system: lung cancer H460 xenograft; assay: Xenograft tumor growth in nude mice, H460; type: in vivo; conditions: Table 4H, Lung Ca H460, 4 weeks, 5 μg/day s.c.
Description: as §1, §2, §3, §4, §5, §6

[5] = test system: pancreatic cancer CFPAC-1 xenograft; assay: Xenograft tumor growth in nude mice, CFPAC-1; type: in vivo; conditions: Table 4I, Pancreatic Ca CFPAC-1, 7 weeks; for % Inhibition: vs control
Description: as §1, §2, §3, §4, §5, §6

MX-1 breast cancer cells = assay: In vitro cell viability, MX-1; type: cell-based, human; conditions: Table 3B; 5 μM for 72 H; MIA-602 = 1
Description: as §7
as §3, with “(NCI-N87 and KATOIII), urothelial (J82, RT4), prostatic” for “(NCI-N87), prostate”, “breast” for “brest”, “HCC 1806),” for “HCC-1806),”
as §8
Inhibitory effects of selected AVR compounds in comparison to that of MIA602 are presented as inhibitory potency (e.g., percentage of inhibition). […] The cell lines tested including lung cancer HCC827 (FIG. 2A), pancreatic cancer CFPAC-1 (FIG. 2B), stomach cancer N87 (FIG. 2C), colon cancer HT-29 (FIG. 2D), breast cancers MX-1 and HCC1806 (FIGS. 2 E, F). Based on the results of cell proliferation assay after cancer cells were treated with antagonist at concentration of 5 μM for 72H, the relative inhibitory potency of AVR antagonists in comparison to MIA-602 is summarized in Table 3 A and B. Over 60 AVR compounds were tested in 12 cancer cell lines.
Based on the results of cell proliferation assay after cancer cells were treated with antagonist at concentration of 5 µM for 72H, * at concentration of 2 µM for 72 H.

[6] = test system: breast cancer HCC-1806 xenograft; assay: Xenograft tumor growth in nude mice, HCC-1806; type: in vivo; conditions: Table 4K, Breast Ca HCC-1806, 5 weeks, 5 μg/day s.c.
Description: as §1, §2, §3, §4, §5, §6

Row | Compound | Tumor Growth % ([1]; 5 μg/day s.c.) | % Inhibition ([1]; 5 μg/day s.c.) | Tumor Growth % [2] | % Inhibition [2] | Tumor Growth % ([1]; 2.5 μg/day s.c.) | % Inhibition ([1]; 2.5 μg/day s.c.) | Tumor Growth % ([1]; 10 μg/day s.c.) | % Inhibition ([1]; 10 μg/day s.c.) | In vitro relative inhibitory potency in comparison to MIA-602, SKOV-3 [3] | Tumor Growth % [4] | % Inhibition ([4]; vs control) | Tumor Growth % ([5]; 2.5 μg/day s.c.) | % Inhibition ([5]; 2.5 μg/day s.c.) | Tumor Growth % ([5]; 5 μg/day s.c.) | % Inhibition ([5]; 5 μg/day s.c.) | In vitro relative inhibitory potency in comparison to MIA-602, MX-1 (MX-1 breast cancer cells) | Tumor Growth % [6] | % Inhibition ([6]; vs control)
1 | CCCC[C@H](NC(=O)[C@@H](NC(=O)[C@H](CC(=O)O)NC(=O)[C@H](CCC(N)=O)NC(=O)[C@H](CC(C)C)NC(=O)[C@H](CC(C)C)NC(=O)[C@H](CCCCN)NC(=O)[C@H](CCCNC(=N)N)NC(=O)[C@H](C)NC(=O)[C@H](CO)NC(=O)[C@H](CC(C)C)NC(=O)[C@H](CCC(N)=O)NC(=O)[C@H](CC)NC(=O)[C@H](CC(C)C)NC(=O)[C@@H](NC(=O)[C@H](CCCCN)NC(=O)[C@H](CCCNC(=N)N)NC(=O)[C@H](Cc1ccc(OC)cc1)NC(=O)[C@H](CCCCNC(=N)N)NC(=O)[C@H](CC(N)=O)NC(=O)[C@@H](NC(=O)[C@H](Cc1ccc(Cl)cc1)NC(=O)[C@@H](NC(=O)[C@H](C)NC(=O)[C@H](CC(=O)O)NC(=O)[C@@H](CCCNC(=N)N)NC(=O)[C@H](Cc1ccc(O)cc1)NC(=O)CCCCCCCCCCCNC(=O)Cc1c(F)c(F)c(F)c(F)c1F)[C@@H](C)CC)[C@@H](C)O)C(C)C)[C@@H](C)CC)C(=O)N[C@H](CCCNC(=N)N)C(=O)N[C@@H](CCCCNC(=N)N)C(=O)NCCCCCCCCCCCC(N)=O [AVR-333, 5FPhAC-Ada-Tyr-DArg-Asp-Ala-Ile-Cpa-Thr-Asn-Har-Tyr(Me)-Arg-Lys-Val-Leu-Abu-Gln-Leu-Ser-Ala-Arg-Lys-Leu-Leu-Gln-Asp-Ile-Nle-DArg-Har-Ada-NH2] ({Phenylacetyl(2,3,4,5,6-F5)-12Ado}-Y[dR]DAI[Phe(4-Cl)]TN[hArg]Y(Me)RKVL[Abu]QLSARKLLQDI[Nle][dR][hArg][12Ado]-NH2) | 1384.4% | 48.2% |  |  |  |  |  |  |  |  |  |  |  |  |  |  |  | 
2 | CCCC[C@H](NC(=O)[C@@H](NC(=O)[C@H](CC(=O)O)NC(=O)[C@H](CCC(N)=O)NC(=O)[C@H](CC(C)C)NC(=O)[C@H](CC(C)C)NC(=O)[C@H](CCCCN)NC(=O)[C@H](CCCNC(=N)N)NC(=O)[C@H](C)NC(=O)[C@H](CO)NC(=O)[C@H](CC(C)C)NC(=O)[C@H](CCC(N)=O)NC(=O)[C@H](CC)NC(=O)[C@H](CC(C)C)NC(=O)[C@@H](NC(=O)[C@H](CCCCN)NC(=O)[C@H](CCCNC(=N)N)NC(=O)[C@H](Cc1c(F)c(F)c(F)c(F)c1F)NC(=O)[C@H](CCCCNC(=N)N)NC(=O)[C@H](C)NC(=O)[C@@H](NC(=O)[C@H](Cc1ccc(Cl)cc1)NC(=O)[C@@H](NC(=O)[C@H](C)NC(=O)[C@H](CC(=O)O)NC(=O)[C@@H](CCCNC(=N)N)NC(=O)[C@H](Cc1ccc(O)cc1)NC(=O)CCCCCCCCCCCNC(=O)Cc1c(F)c(F)c(F)c(F)c1F)[C@@H](C)CC)[C@@H](C)O)C(C)C)[C@@H](C)CC)C(=O)N[C@H](CCCNC(=N)N)C(=O)N[C@@H](CCCCNC(=N)N)C(=O)NCCCCCCCCCCCC(N)=O [AVR-353, 5FPhAC-Ada-Tyr-DArg-Asp-Ala-Ile-Cpa-Thr-Ala-Har-5FPhe-Arg-Lys-Val-Leu-Abu-Gln-Leu-Ser-Ala-Arg-Lys-Leu-Leu-Gln-Asp-Ile-Nle-DArg-Har-Ada-NH2] ({Phenylacetyl(2,3,4,5,6-F5)-12Ado}-Y[dR]DAI[Phe(4-Cl)]TA[hArg][Phe(F5)]RKVL[Abu]QLSARKLLQDI[Nle][dR][hArg][12Ado]-NH2) | 1257.3% | 52.9% | 774.2% | 30.5% | 1482.8% | 44.5% | 1005.1% | 62.4% | 1.04* | 1335.0% | 60.5% | 1294.1% | 34.3% | 1077.6% | 46.2% | 2.001 |  | 
3 | CCCC[C@H](NC(=O)[C@@H](NC(=O)[C@H](CC(=O)O)NC(=O)[C@H](CCC(N)=O)NC(=O)[C@H](CC(C)C)NC(=O)[C@H](CC(C)C)NC(=O)[C@H](CCCCN)NC(=O)[C@H](CCCNC(=N)N)NC(=O)[C@H](C)NC(=O)[C@H](CO)NC(=O)[C@H](CC(C)C)NC(=O)[C@H](CCC(N)=O)NC(=O)[C@H](CC)NC(=O)[C@H](CC(C)C)NC(=O)[C@@H](NC(=O)[C@H](CCCCN)NC(=O)[C@H](CCCNC(=N)N)NC(=O)[C@H](Cc1c(F)c(F)c(F)c(F)c1F)NC(=O)[C@H](CCCCNC(=N)N)NC(=O)[C@H](C)NC(=O)[C@@H](NC(=O)[C@H](Cc1ccc(Cl)cc1)NC(=O)[C@@H](NC(=O)[C@H](C)NC(=O)[C@H](CC(=O)O)NC(=O)[C@@H](CCCNC(=N)N)NC(=O)[C@H](Cc1ccc(O)cc1)NC(=O)CCCCCCCCCCCNC(=O)Cc1c(F)c(F)c(F)c(F)c1F)[C@@H](C)CC)[C@@H](C)O)C(C)C)[C@@H](C)CC)C(=O)N[C@H](CCCNC(=N)N)C(=O)N[C@@H](CCCCNC(=N)N)C(=O)NCCCCCCCCCCCC(=O)NC [AVR-354] ({Phenylacetyl(2,3,4,5,6-F5)-12Ado}-Y[dR]DAI[Phe(4-Cl)]TA[hArg][Phe(F5)]RKVL[Abu]QLSARKLLQDI[Nle][dR][hArg][12Ado]-NHMe) |  |  | 488.3% | 56.2% |  |  |  |  |  |  |  |  |  |  |  | 1.594 | 680.2% | 43.1%

Reference: patent publication US20210395327A1, “Growth Hormone-Releasing Hormone Antagonists and Uses Thereof” (United States Government As Represented By The Department …, priority 2019, published 2021)
